On the set-up of data set [1]: method as in Mok et al., 2017. To be noted: metabolite of osimertinib; ref Mok et al., 2017; cited from earlier work.
The conditions of data set [2]: mouse, in vivo, po, 25 mg/kg.
Protocol: (§5) The blood and brain tissues of mice with brain metastases were sampled at 0.5, 1, 2, 4, 8, and 24 h post dosing.
(§6) Chromatographic column:Thermo Hypersil C18 100 × 2.1 mm, 3 μm; Flow rate: 0.4 ml/min; Water phase: 0.1% formic acid aqueous solution; Organic phase: 0.1% formic acid/acetonitrile; Needle wash: methanol; Column oven temperature: 40°C; Autosampler temperature: 10.0°C; Automatic sampling Injection volume of the detector: 5.00 µl.
(§7) Dilute the 2.00 mg/ml stock solution to obtain standard curve solutions with concentrations of 500, 200, 50, 2, 1, and 0.5 ng/ml.
(§8) Dissolve the serum sample at room temperature, take 50 μl, add 150 μl methanol, vortex for 5 min, place in a centrifuge at 15,000 rpm for 10 min, take the supernatant for analysis. Weigh the tissue sample, add 2 ml of methanol, grind for 5 min, vortex and mix for 5 min, place it in a centrifuge at 15,000 rpm for 10 min, and take the supernatant for analysis.
A further data set addresses T1, ABCB1 (Homo sapiens, UniProt P08183).
T1 construct: expressed in transfected cells; host or cells: MDCK (canine kidney) cells transduced with lentivirus from pLVX-CMV-ABCB1
Put plainly: Bidirectional transport across ABCB1-MDCK monolayers. It is filed as in vitro ADME. To be noted: for ABCB1 transporter substrate assessment: criterion ER >2, ABCB1-MDCK vs MDCK. As for the experimental part:
(§1) To establish an MDCK transgenic cell line that can stably express human ABCB1 and BCRP and to identify whether it is suitable for drug delivery experiments, lentivirus shuttle plasmids pLVX-CMV-ABCB1 and pLVX-CMV-BCRP and their auxiliary packaging plasmids PSPAX2 and PMD2G, were extracted with high purity and free of endotoxin, respectively. 293T cells were transfected with Lipofectamine™ 3000 transfection reagent, and the medium was changed 6 h after transfection. After culturing for 24 and 48 h, the cell supernatants, rich in lentivirus particles, were collected and concentrated by ultracentrifugation. Before lentivirus transfection for 18–24 h, adherent MDCK cells were spread on 24-well plates at a density of 1 × 10^5/well. The number of cells transfected with lentivirus was approximately 2 × 10^5/well. The next day, the original medium was replaced with 2 ml of fresh medium containing 6 μg/ml polybrene, and then an appropriate amount of virus suspension; the plates were incubated at 37°C. After 4 h, 2 ml of fresh medium was added to dilute polybrene. The cells were cultured for another 24 h, and the medium containing virus was replaced with fresh medium. After 3–4 days of transfection, puromycin was added to screen the cell lines stably expressing ABCB1 and BCRP.
(§2) MDCK, ABCB1-MDCK, and BCRP-MDCK cells were inoculated in Tmur75 culture bottles with high-glucose DMEM. The cells were counted using a cell counter, the cell density was adjusted to 2.0 × 10^5 cells/ml, and the cells were inoculated in 12-well transwell plates [1.13 cm^2 insert area, 0.4 µm pore size (Corning Life Sciences, New York, NY, United States)]. Thereafter, 0.5 ml of cell suspension was added to the villous surface of each hole (AP side) and 1.5 ml of blank culture medium was added to the basal surface (BL side). After 24 h of culture in the incubator, the fresh culture medium was changed on both AP and BL sides, and the medium was changed every day for 3–5 days. In this experiment, transmembrane resistance was used to evaluate the compactness and integrity of the cell model. When the transmembrane resistance (TEER) is greater than 300 Ω cm^2, the cell monolayer is considered dense and intact. The higher the TEER value, the tighter the monolayer connection. The TEER of monolayer cells was calculated using the following formula: TEER = (R - Rb) × A; where, R is the resistance of the well inoculated with cells, Rb is the blank well without cell inoculation, and A is the membrane area of the polycarbonate membrane.
(§3) Before the transport experiment, the cell monolayer was washed with blank HBSS solution at 37°C three times, and then placed in a CO2 incubator and balanced with HBSS solution for 30 min at 37°C. The transport of the AP→BL side: 0.5 ml of the test solution was added to the AP side as the supply pool, whereas 1.5 ml of blank HBSS solution was added to the BL side as the receiving pool. Before sampling, 0.1 ml of the sample was collected from the BL side in the centrifuge tube, and after sampling, 0.1 ml of blank HBSS, transport sample, was added to the BL side to precipitate protein with methanol, and used for liquid chromatography-tandem mass spectrometry (LC-MS) detection. The transport of the BL→AP side: 1.5 ml of the test solution was added to the BL side as the supply pool, whereas 0.5 ml of blank HBSS solution was added to the AP side as the receiving pool. First, 0.1 ml of the sample was collected on the AP side in the centrifuge tube, and then 0.1 ml of HBSS was added to the AP side after sampling. A transport sample was added to the AP side to precipitate the protein with methanol and used for LC-MS detection.
(§4) The protein was precipitated with methanol in 0.1 ml of blank HBSS, transport sample, and used for LC-MS detection. Drug absorption was determined by LC-MS/MS.

The target of a further data set is T2, BCRP (Homo sapiens, UniProt Q9UNQ0).
T2 construct: expressed in transfected cells; host or cells: MDCK (canine kidney) cells transduced with lentivirus from pLVX-CMV-BCRP
T2 sequence (Q9UNQ0 1-655): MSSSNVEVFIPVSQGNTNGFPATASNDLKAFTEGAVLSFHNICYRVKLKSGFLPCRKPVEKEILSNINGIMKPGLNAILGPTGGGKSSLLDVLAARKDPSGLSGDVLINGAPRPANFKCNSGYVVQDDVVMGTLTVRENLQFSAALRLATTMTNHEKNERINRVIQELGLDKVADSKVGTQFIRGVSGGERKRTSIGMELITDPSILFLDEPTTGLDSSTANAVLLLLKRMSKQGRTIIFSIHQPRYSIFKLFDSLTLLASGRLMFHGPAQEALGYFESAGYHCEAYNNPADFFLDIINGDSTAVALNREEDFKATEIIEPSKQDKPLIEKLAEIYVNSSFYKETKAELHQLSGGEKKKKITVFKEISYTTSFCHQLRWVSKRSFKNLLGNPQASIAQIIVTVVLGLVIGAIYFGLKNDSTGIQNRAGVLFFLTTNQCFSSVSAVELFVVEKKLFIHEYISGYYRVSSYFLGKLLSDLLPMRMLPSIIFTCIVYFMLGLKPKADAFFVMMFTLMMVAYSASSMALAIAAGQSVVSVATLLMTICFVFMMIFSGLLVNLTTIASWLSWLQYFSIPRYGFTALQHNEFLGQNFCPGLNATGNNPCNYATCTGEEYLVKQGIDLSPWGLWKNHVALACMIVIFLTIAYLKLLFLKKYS
Put plainly: Bidirectional transport across BCRP-MDCK monolayers. Type of data set: in vitro ADME. To be noted: for BCRP transporter substrate assessment: criterion ER >2, BCRP-MDCK vs MDCK. As for the experimental part: as §1, §2, §3, §4

A further data set deals with MDCK cell monolayers. Put plainly: Bidirectional transport across MDCK monolayers. Type of data set: in vitro ADME, canine. The protocol:
as §2, §3, §4

Data set [3] deals with EGFR 19del mutant lung adenocarcinoma and brain metastases. Put plainly: Clinical case study, EGFR 19del lung adenocarcinoma with brain metastases. To be noted: one patient. Type of data set: in vivo, human. As for the experimental part:
Herein, we present details of a clinical case study. In this case, brain metastases were recorded at the beginning of the study, and almonertinib was administered for several weeks to allow magnetic resonance imaging of the brain to observe the progression of the disease. Written informed consent was obtained from the patient. The work has been carried out in accordance with The Code of Ethics of the World Medical Association (Declaration of Helsinki).

Data set [4] is described as follows: Mouse pharmacokinetic study, plasma and brain by LC-MS.
Protocol: as §5, §6, §7, §8
Data set [5] has as its system PC9-LUC brain metastatic tumor. Kind of data set: Mouse brain metastasis xenograft (intracranial PC9-LUC). Type of data set: in vivo, BALB/c nude mice. To be noted: for growth of intracranial tumors (bioluminescence) / body weight of mice: 10 and 25 mg/kg once daily.
Protocol: The brain metastasis model was established via intracranial injection of tumor cells into 6–8-week-old SPF female BALB/c nude mice. The tumor seeding process, which is an aseptic operation, was carried out on an ultra-clean bench. The tumor cells used in this experiment were PC9-LUC cells, and the concentration of the cell suspension was 1 × 10^8/ml. Pentobarbital sodium at 50 mg/kg body weight was administered via intraperitoneal injection. The top of the mouse skull was cut along the center of the skull from the ears to the eyes. An area of about 1–2 cm of the skull was then wiped repeatedly with a cotton swab to remove the fascia and expose the cranial sutures. Holes were then drilled 1 mm below the coronal suture of the skull and 2–2.5 mm from the sagittal suture while keeping the mouse head level. The cranial drill was inserted vertically and the drill was operated at low speed to avoid brain damage. Each mouse was then placed on the brain stereotaxic device, the tip of the syringe needle was aligned with the hole on the skull, and 3 μl of cell suspension (3 × 10^5 cells) was injected via a needle at a depth of 3 mm from the skull. The needle was maintained for 1–2 min following cell injection and then withdrawn. A cotton swab was used to compress the wound and medical adhesive was used to bond the skin wounds. Mice were then placed on a heating blanket and then returned to the animal room for recovery and ongoing nurture. Bioluminescent (BLI) signals were measured weekly using the IVIS Xenogen Imaging system (FX-PRO, United States) to monitor tumor growth. […] The BLI signal was measured once a week and the body weight of the mice was recorded.
Data set [6] is described as follows: Bidirectional transport across MDCK monolayers. Type of data set: in vitro ADME, canine. To be noted: dog, read-out: efflux ratio (ER). As for the experimental part: as §2, §3, §4
In data set [7] the test system is PC9-LUC spinal cord metastases. Kind of data set: Mouse spinal cord metastasis model (PC9-LUC). It is filed as in vivo, nude mice. The following applies: for biofluorescence signal of intracranial and spinal cord tumors: vs control.
Protocol: The BLI signal was measured once a week, and the body weight of the mice was recorded.
For the spinal cord metastasis model, PC9-LUC cells were injected into the brain ventricles of nude mice, and the mice were placed in an SPF environment. […] These mice were then randomly divided into five groups (five in each group) to receive various treatments. After 16 days of modeling, bioluminescence imaging was used to assess the growth and metastasis of PC9-LUC cells every week.
In data set [8] the target is EGFR T790M mutant protein (Homo sapiens, UniProt P00533, T790M). Put plainly: biochemical.
Protocol: First, according to the standard procedure, a COOH sensor chip was installed on the Open SPR instrument. The buffer was run at the maximum flow rate and exhaust bubbles after reaching the signal baseline. […] The buffer flow rate was then depressed to 20 µl/min and a sample of 200 µl EDC/NHS (1:1) solution was run for 4 min. Then, the injection instrument of the 200 µl ligand was operated for 4 min. Diluted with activation buffer, Once the ligand-chip interaction was completed, the upper sample mouth was rinsed with buffer and emptied by air. Sample 200 µl Blocking (20 µl/min,4 min) solution, buffer (PBS) rinse the sample ring and empty it by air. The baseline was then observed for 5 min to ensure stability. Finally, different concentrations of analyte were injected separately on the surface of the ligand chip (the concentration is detailed in the experimental results), and the analyte was sampled at 20 µl/min. The binding time of the analyte to the ligand was 240 s and the natural dissociation occurred at 480 s. The 200 µl sample flowed through the chip for 240 s at a constant flow rate of 20 µl/min in each cycle.
The combined compounds can be dissociated from the coating surface by acid and alkali. […] Finally, the kinetic parameters of the binding reactions were calculated and analyzed using Trace Drawer software (Ridgeview Instruments AB, Sweden).
The subject of data set [9] is EGFR-mutated NSCLC brain metastases. Also on record: method as in Liu et al., 2020. To be noted: patients, ref Liu et al., 2020; cited from earlier work.
On the set-up of data set [10]: method as in Mok et al., 2017. To be noted: AURA3; ref Mok et al., 2017; cited from earlier work.
Setting [11] is: female, BALB/c nude, mouse, brain, po, 25 mg/kg.
[12] abbreviates: female, BALB/c nude, mouse, plasma, po, 25 mg/kg.
The mark [13] stands for this setting: brain metastasis model, 25 mg/kg once daily.

SMILES strings stand for the structures.

The AUC(0-t) is the area under the concentration-time curve up to a stated or last time point. A high value points to high exposure. In general, Cmax refers to the maximum level reached in the sampled fluid or tissue. As usually defined, the MRT last is the average time that molecules of a dose stay in the body. By Kp is commonly meant the ratio of the level in a tissue or fluid to that in plasma or blood. As usually defined, the Kd is the constant that tells how readily two partners part at equilibrium. High values mean weaker binding, low ones tighter binding.

T1 sequence (P08183 whole entry): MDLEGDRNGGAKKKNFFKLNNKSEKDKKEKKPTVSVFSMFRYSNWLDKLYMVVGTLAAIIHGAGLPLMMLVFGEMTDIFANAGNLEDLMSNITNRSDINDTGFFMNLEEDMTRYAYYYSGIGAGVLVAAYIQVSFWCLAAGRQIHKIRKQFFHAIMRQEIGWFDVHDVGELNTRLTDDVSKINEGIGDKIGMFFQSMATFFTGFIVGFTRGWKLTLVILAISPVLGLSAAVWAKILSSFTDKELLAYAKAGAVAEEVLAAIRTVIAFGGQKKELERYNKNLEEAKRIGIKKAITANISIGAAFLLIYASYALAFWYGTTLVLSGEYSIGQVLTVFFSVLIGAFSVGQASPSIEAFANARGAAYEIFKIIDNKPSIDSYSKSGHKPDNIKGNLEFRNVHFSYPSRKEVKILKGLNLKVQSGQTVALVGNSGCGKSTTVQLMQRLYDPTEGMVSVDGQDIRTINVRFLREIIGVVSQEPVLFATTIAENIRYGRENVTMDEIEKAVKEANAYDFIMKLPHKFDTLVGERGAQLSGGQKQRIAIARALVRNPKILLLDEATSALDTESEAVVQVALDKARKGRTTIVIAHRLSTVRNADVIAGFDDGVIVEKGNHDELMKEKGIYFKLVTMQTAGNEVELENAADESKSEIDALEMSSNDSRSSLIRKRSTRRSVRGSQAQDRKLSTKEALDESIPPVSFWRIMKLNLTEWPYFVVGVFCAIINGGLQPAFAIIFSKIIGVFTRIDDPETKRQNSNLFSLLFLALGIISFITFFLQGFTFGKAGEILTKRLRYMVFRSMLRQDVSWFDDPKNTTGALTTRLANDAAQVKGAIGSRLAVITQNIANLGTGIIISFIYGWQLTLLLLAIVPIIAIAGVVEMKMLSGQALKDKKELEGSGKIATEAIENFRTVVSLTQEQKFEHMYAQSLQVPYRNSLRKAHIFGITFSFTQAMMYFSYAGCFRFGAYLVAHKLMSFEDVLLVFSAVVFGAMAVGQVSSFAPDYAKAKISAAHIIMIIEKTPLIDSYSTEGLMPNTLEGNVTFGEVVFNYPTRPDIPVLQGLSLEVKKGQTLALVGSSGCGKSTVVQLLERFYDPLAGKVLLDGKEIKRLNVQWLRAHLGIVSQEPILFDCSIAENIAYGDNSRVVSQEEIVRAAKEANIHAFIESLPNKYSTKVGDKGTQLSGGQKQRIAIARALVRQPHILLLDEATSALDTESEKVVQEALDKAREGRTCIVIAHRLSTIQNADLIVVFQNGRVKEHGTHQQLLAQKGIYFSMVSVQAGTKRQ
Chain of EGFR T790M mutant protein (P00533 25-1210 T790M): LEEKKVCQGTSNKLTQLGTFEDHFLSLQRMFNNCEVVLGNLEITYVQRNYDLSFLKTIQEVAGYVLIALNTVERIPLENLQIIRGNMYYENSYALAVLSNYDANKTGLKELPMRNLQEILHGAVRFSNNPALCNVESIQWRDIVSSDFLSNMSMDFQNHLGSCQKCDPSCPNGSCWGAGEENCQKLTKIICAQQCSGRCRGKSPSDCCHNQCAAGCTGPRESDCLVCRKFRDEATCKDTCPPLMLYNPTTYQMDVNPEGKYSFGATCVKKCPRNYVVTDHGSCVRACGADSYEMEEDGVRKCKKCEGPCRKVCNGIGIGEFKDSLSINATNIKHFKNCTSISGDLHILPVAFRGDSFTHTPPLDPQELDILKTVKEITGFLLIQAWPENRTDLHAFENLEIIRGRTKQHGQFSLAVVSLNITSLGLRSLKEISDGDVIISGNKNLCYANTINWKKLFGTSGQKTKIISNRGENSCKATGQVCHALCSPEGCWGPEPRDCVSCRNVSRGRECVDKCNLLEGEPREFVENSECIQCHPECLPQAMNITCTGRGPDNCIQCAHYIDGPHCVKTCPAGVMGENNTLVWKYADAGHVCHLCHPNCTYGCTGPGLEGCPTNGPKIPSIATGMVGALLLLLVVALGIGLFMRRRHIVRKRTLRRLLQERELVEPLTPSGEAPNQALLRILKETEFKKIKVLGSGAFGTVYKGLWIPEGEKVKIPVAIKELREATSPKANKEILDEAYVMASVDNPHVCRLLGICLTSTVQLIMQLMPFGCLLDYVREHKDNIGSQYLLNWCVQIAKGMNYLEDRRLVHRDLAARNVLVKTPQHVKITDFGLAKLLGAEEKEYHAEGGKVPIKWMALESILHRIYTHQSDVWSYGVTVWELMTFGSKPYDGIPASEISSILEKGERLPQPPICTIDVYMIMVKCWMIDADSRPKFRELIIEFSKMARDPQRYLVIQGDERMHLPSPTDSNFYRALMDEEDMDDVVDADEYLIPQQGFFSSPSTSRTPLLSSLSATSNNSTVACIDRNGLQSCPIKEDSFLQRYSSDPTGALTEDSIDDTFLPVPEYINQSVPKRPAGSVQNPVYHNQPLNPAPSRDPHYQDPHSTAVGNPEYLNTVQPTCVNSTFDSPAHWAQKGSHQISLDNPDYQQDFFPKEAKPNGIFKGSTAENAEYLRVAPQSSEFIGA

On to `C=CC(=O)Nc1cc(Nc2nccc(-c3c[nH]c4ccccc34)n2)c(OC)cc1N(C)CCN(C)C` [AZ5104], for which the “concentration of active metabolite in the human body” value in [1] is on record as approximately 10%.

As to `C=CC(=O)Nc1cc(Nc2nccc(-c3cn(C4CC4)c4ccccc34)n2)c(OC)cc1N(C)CCNC` [HAS-719], the “Tissue/plasma AUC ratio” value in data set [2] is 0.21. The “efflux ratio (ER)” value is listed as 29.83 at ABCB1 (ABCB1-MDCK, 1 μM); 12.26 on ABCB1 (ABCB1-MDCK, 10 μM); 5.5 at ABCB1 (ABCB1-MDCK, 20 μM); 11.59 at BCRP (BCRP-MDCK, 1 μM); 5.07 on BCRP (BCRP-MDCK, 10 μM); 2.49 at BCRP (BCRP-MDCK, 20 μM). For the same compound, the “efflux ratio (ER)” value with MDCK cell monolayers (1 μM) was 2.81; in the data set with MDCK cell monolayers (10 μM), 1.61; in the data set on MDCK cell monolayers (20 μM), 1.62. Further, the “ABCB1 transporter substrate assessment” value on ABCB1 is “ABCB1 and BCRP transporter substrates”. In addition, on BCRP, the “BCRP transporter substrate assessment” value was “ABCB1 and BCRP transporter substrates”.

Turning to `C=CC(=O)Nc1cc(Nc2nccc(-c3cn(C4CC4)c4ccccc34)n2)c(OC)cc1N(C)CCN(C)C` [almonertinib], in data set [3] (110 mg po qd first-line, after 8 weeks), the intracranial tumor response entry was “partially responded”. Moreover, the abnormalities during treatment entry in data set [3] (110 mg po qd) is reported as “no other abnormalities”. Also, the “ABCB1 transporter substrate assessment” value on ABCB1 was “ABCB1 and BCRP transporter substrates”. The efflux ratio at 1 μM at ABCB1 (human, MDCK-MDR1, ABCB1-MDCK, 1 μM, read-out: efflux ratio (ER)) was determined as 5.2; on BCRP (human, BCRP-MDCK, 1 μM, read-out: efflux ratio (ER)), 4.62; in data set [6] (1 μM) it was 1.1. Besides, the efflux ratio at 10 μM on ABCB1 (human, MDCK-MDR1, ABCB1-MDCK, 10 μM, read-out: efflux ratio (ER)) was 2.75; at BCRP (human, BCRP-MDCK, 10 μM, read-out: efflux ratio (ER)) it was 2.51; in [6] (10 μM), 1.42. Besides, the efflux ratio at 20 μM on ABCB1 (human, MDCK-MDR1, ABCB1-MDCK, 20 μM, read-out: efflux ratio (ER)) was 1.84; on BCRP (human, BCRP-MDCK, 20 μM, read-out: efflux ratio (ER)), 1.53; in data set [6] (20 μM), 1.02. In [4] (24 h after 25 mg/kg oral), the “detectability in plasma and brain tissue” value is listed as “could still be detected”. For the same compound, the BBB penetration result in data set [4] (PC9-LUC BM xenograft mice, almonertinib 25 mg/kg oral) is reported as “excellent BBB penetration”. Besides, the tmax in data set [4] (brain, almonertinib 25 mg/kg oral) came to 2 h; in [4] (female, BALB/c nude, mouse, plasma, po, 25 mg/kg, tmax, almonertinib 25 mg/kg oral) it was 0.5 h. Also, the AUC(0-t) in [4] (setting [11]) came out at 30.6 µM·h; in [4] (setting [12]), 16.9 µM·h. The Cmax in data set [4] (setting [11]) was determined as 5.36 µM; in data set [4] (setting [12]), 6.41 µM. The figures for the MRT last in data set [4] (setting [11]) and in [4] (setting [12]) were 6.19 h and 5.42 h, respectively. Moreover, the Kp in data set [4] (female, BALB/c nude, mouse, brain/plasma, po, 25 mg/kg) came out at 1.82. Further, the “BCRP transporter substrate assessment” value at BCRP was “ABCB1 and BCRP transporter substrates”. Besides, the “neurological function (sticky dot test, vertical test)” value in [5] (25 mg/kg, vs control group) was “significant improvement in neurological function”. Further, the “growth of intracranial tumors (bioluminescence)” value in [5] was “effectively inhibited the growth of intracranial tumors”. For the same compound, the “number of proliferative cells (Ki-67, histological analysis of brain tissue)” value in data set [5] (brain metastasis model) is “significantly decreased”. Also, the “body weight of mice” value in data set [5] (brain metastasis model) is given as “decreased after administration”. In [5] (brain metastasis model, 10 and 25 mg/kg, 60 days), the “overall survival time of mice” value is on record as “longer than that of mice in the osimertinib group”. Moreover, in [7] (5 mg/kg, spinal cord metastatic mice), the “tumor growth / regression” value is “can inhibit tumor growth but cannot cause tumor regression”. Besides, the “biofluorescence signal of intracranial and spinal cord tumors” value (from here on “biofluorescence signal”) in data set [7] (high-dose group (25 mg/kg Qd)) is reported as “significantly reduced”; in [7] (low-dose group (5 mg/kg Qd)), “did not change significantly”. Also, the “proliferation of tumor cells (H&E and Ki-67 staining of spinal cord)” value in data set [7] (high-dose group (25 mg/kg)) is “significant inhibition in the proliferation of tumor cells”. For the same compound, the survival time entry in data set [7] (spinal cord metastasis model, vs osimertinib-administered group) is recorded as “longer survival time”. Moreover, the affinity in data set [8], expressed as Kd, was 11.1 µM.

With `C#Cc1cccc(Nc2ncnc3cc4c(cc23)OCCOCCOCCO4)c1` [icotinib], the “median intracranial progression free survival (PFS)” value in data set [9] is listed as 8.4 months.

In the case of `C=CC(=O)Nc1cc(Nc2nccc(-c3cn(C)c4ccccc34)n2)c(OC)cc1N(C)CCN(C)C` [osimertinib], in data set [10], the “grade 1 and 2 diarrhea, patients affected” value is listed as 41%; the “grade 1 and 2 rashes, patients affected” value is recorded as 34%. Moreover, in [5], the “growth of intracranial tumors (bioluminescence)” value was “effectively inhibited the growth of intracranial tumors”. In data set [5] (setting [13]), the skin of mice result is listed as “appeared to be keratinized” and the weight loss result was “more obvious”. Besides, the “body weight of mice” value in data set [5] (brain metastasis model) was “decreased after administration”. For the same compound, the “biofluorescence signal” value in [7] (high-dose group (25 mg/kg Qd)) is “significantly reduced”. Besides, the “biofluorescence signal” value in [7] (low-dose group (5 mg/kg Qd)) was “did not change significantly”.
